We go through 17 compounds from ChEMBL document CHEMBL3352445, “Inhibition of activated STAT5 in Bcr/Abl expressing leukemia cells with new pimozide derivatives” (Bioorg Med Chem Lett, 2014).

Experiment [1] deals with K562. Description: Cell cycle arrest in human K562 cells assessed as accumulation at G1 phase after 24 hrs using propidium iodide staining at 10 uM by flow cytometry (reference value: 39.05%). The class given is functional.
In experiment [2] the test system is K562. In words: Cytotoxicity against human K562 cells after 48 hrs by trypan blue dye exclusion test. The experiment is classed as functional, cell-based. Conditions: K562, 48 h.
Experiment [3] deals with K562. Description: Reduction in pSTAT5 expression level in human K562 cells at 10 uM after 24 hrs by FACScan flow cytometry. The experiment is classed as functional, cell-based.
For experiment [4], the system named is K562. Description: Cell cycle arrest in human K562 cells assessed as accumulation at G2-M phase after 24 hrs using propidium iodide staining at 10 uM by flow cytometry (reference value: 15.01%). The experiment is classed as functional.
The test system of experiment [5] is K562. In words: Cell cycle arrest in human K562 cells assessed as accumulation at S phase after 24 hrs using propidium iodide staining at 10 uM by flow cytometry (reference value: 45.94%). The experiment is classed as functional.
Experiment [6] has as its system K562. In words: Induction of apoptosis in human K562 cells by annexin V/propidium iodide staining-based flow cytometric analysis. The experiment is classed as functional, cell-based.
Experiment [7] relates to K562. Description: Cell cycle arrest in human K562 cells assessed as accumulation at S phase after 24 hrs using propidium iodide staining at 30 uM by flow cytometry (reference value: 45.94%). The class given is functional.
Experiment [8] has as its system K562. In words: Cell cycle arrest in human K562 cells assessed as accumulation at G2-M phase after 24 hrs using propidium iodide staining at 30 uM by flow cytometry (reference value: 15.01%). The class given is functional.
In experiment [9] the test system is K562. In words: Cell cycle arrest in human K562 cells assessed as accumulation at G1 phase after 24 hrs using propidium iodide staining at 30 uM by flow cytometry (reference value: 39.05%). The experiment is classed as functional.
The subject of experiment [10] is K562. In words: Effect on pSTAT5 expression level in human K562 cells at 20 uM after 24 hrs by FACScan flow cytometry. The class given is functional, cell-based.
Experiment [11] has as its system K562. Description: Induction of pSTAT5 expression level in human K562 cells at 15 uM after 24 hrs by FACScan flow cytometry. The class given is functional, cell-based.
The subject of experiment [12] is K562. In words: Ratio of Pimozide AC50 to compound AC50 for human K562 cells by annexin V/propidium iodide staining-based flow cytometric analysis. The class given is functional.
Experiment [13] deals with K562. In words: Ratio of Pimozide IC50 to compound IC50 for human K562 cells by trypan blue dye exclusion test. The class given is functional.
In experiment [14] the test system is K562. Description: Cell cycle arrest in human K562 cells assessed as accumulation at G1 phase after 24 hrs using propidium iodide staining at 5 uM by flow cytometry (reference value: 39.05%). The experiment is classed as functional.
Experiment [15] relates to K562. In words: Cell cycle arrest in human K562 cells assessed as accumulation at S phase after 24 hrs using propidium iodide staining at 5 uM by flow cytometry (reference value: 45.94%). The experiment is classed as functional.
Experiment [16] relates to K562. In words: Induction of pSTAT5 expression level in human K562 cells at 10 uM after 24 hrs by FACScan flow cytometry. The class given is functional, cell-based.
The test system of experiment [17] is K562. Description: Cell cycle arrest in human K562 cells assessed as accumulation at G2-M phase after 24 hrs using propidium iodide staining at 5 uM by flow cytometry (reference value: 15.01%). The experiment is classed as functional.
Experiment [18] has as its system K562. Description: Ratio of Pimozide to compound for pSTAT5 expression level in human K562 cells. The experiment is classed as functional.
The subject of experiment [19] is K562. In words: Effect on pSTAT5 expression level in human K562 cells at 30 uM after 24 hrs by FACScan flow cytometry. The experiment is classed as functional, cell-based.
Experiment [20] relates to K562. Description: Cell cycle arrest in human K562 cells assessed as accumulation at G1 phase after 24 hrs using propidium iodide staining at 40 uM by flow cytometry (reference value: 39.05%). The class given is functional.
Experiment [21] deals with K562. In words: Cell cycle arrest in human K562 cells assessed as accumulation at S phase after 24 hrs using propidium iodide staining at 40 uM by flow cytometry (reference value: 45.94%). The experiment is classed as functional.
The test system of experiment [22] is K562. In words: Cell cycle arrest in human K562 cells assessed as accumulation at G2-M phase after 24 hrs using propidium iodide staining at 40 uM by flow cytometry (reference value: 15.01%). The experiment is classed as functional.
The subject of experiment [23] is K562. In words: Cell cycle arrest in human K562 cells assessed as accumulation at S phase after 24 hrs using propidium iodide staining at 7 uM by flow cytometry (reference value: 45.94%). The class given is functional.
Experiment [24] has as its system K562. In words: Cell cycle arrest in human K562 cells assessed as accumulation at G1 phase after 24 hrs using propidium iodide staining at 7 uM by flow cytometry (reference value: 39.05%). The experiment is classed as functional.
Experiment [25] relates to K562. Description: Cell cycle arrest in human K562 cells assessed as accumulation at G2-M phase after 24 hrs using propidium iodide staining at 7 uM by flow cytometry (reference value: 15.01%). The class given is functional.
In experiment [26] the test system is K562. In words: Effect on pSTAT5 expression level in human K562 cells at 10 uM after 24 hrs by FACScan flow cytometry. The class given is functional, cell-based.
Experiment [27] has as its system K562. In words: Cell cycle arrest in human K562 cells assessed as accumulation at S phase after 24 hrs using propidium iodide staining at 20 uM by flow cytometry (reference value: 45.94%). The experiment is classed as functional.
In experiment [28] the test system is K562. Description: Cell cycle arrest in human K562 cells assessed as accumulation at G1 phase after 24 hrs using propidium iodide staining at 20 uM by flow cytometry (reference value: 39.05%). The class given is functional.
The subject of experiment [29] is K562. In words: Cell cycle arrest in human K562 cells assessed as accumulation at G2-M phase after 24 hrs using propidium iodide staining at 20 uM by flow cytometry (reference value: 15.01%). The experiment is classed as functional.

Structures are written as SMILES. Calls of active or inactive are those of the source. The rule behind the calls is not given here. Bounds are passed on as bounds.

As to `O=c1[nH]c2ccccc2n1C1CCN(CCCC(c2ccc(F)cc2)c2ccc(F)cc2)CC1` [PIMOZIDE], the Activity in the experiment with K562 [1] was 51.28%; with K562 [3], “Dose-dependent effect”; in the experiment on K562 [4] it was 10.31%; in the experiment with K562 [5], 38.41%. This compound registered an IC50 in the experiment on K562 [2] of 5 µM. In addition, the activity with K562 [6] was half-maximal at 10 µM (AC50).
As to `C=CC(=O)N1CCC(n2c(=O)[nH]c3ccccc32)CC1`, the IC50 in the experiment with K562 [2] is greater than 50 µM. In the experiment with K562 [6], the AC50 is greater than 50 µM.
On to `O=C(CCC(c1ccccc1)c1ccccc1)N1CCC(n2c(=O)[nH]c3ccccc32)CC1`, for which inhibition in the experiment with K562 [2] was half-maximal at 14 µM (IC50). In addition, the Activity stood at 31.57% in the experiment with K562 [7], 20.41% with K562 [8] and 48.02% in the experiment on K562 [9]. Also, the result in the experiment with K562 [10] was inactive. This compound had an AC50 in the experiment on K562 [6] of 19 µM.
For the compound `O=C(CI)N1CCC(n2c(=O)[nH]c3ccccc32)CC1`, the midpoint of inhibition in the experiment on K562 [2], the IC50, lay at 1.8 µM. For the same compound, the result in the experiment with K562 [11] and with K562 [16] was Active. The “Ratio IC50” value was determined as 2 in the experiment on K562 [12], 2.7 with K562 [13] and 1.49 with K562 [18]. The Activity with K562 [14] is listed as 46.96%; with K562 [15], 39.06%; with K562 [17], 13.98%. Also, the AC50 with K562 [6] was determined as 5 µM.
Turning to `O=C(Cc1ccc([N+](=O)[O-])cc1)N1CCC(n2c(=O)[nH]c3ccccc32)CC1`, half-maximal inhibition with K562 [2] (IC50) required 35 µM. The result in the experiment with K562 [19] was inactive. In addition, the Activity was 31.72% in the experiment on K562 [20], 62.21% with K562 [21] and 6.07% in the experiment on K562 [22]. Also, the AC50 with K562 [6] was greater than 50 µM.
In the experiment with K562 [2], `O=C(CBr)N1CCC(n2c(=O)[nH]c3ccccc32)CC1` gave an IC50 of 2.4 µM. The result in the experiment on K562 [11] and in the experiment with K562 [16] was Active. For the same compound, the values for the Activity in the experiment on K562 [23], in the experiment with K562 [24] and with K562 [25] were 43.23%, 47.55% and 9.22%, respectively. The activity with K562 [6] was half-maximal at 4.8 µM (AC50).
The compound `O=c1[nH]c2ccccc2n1C1CCNCC1` displayed a concentration for half-maximal inhibition (IC50) with K562 [2] greater than 50 µM. The compound further registered an AC50 with K562 [6] greater than 50 µM.
For the compound `O=C(CCl)N1CCC(n2c(=O)[nH]c3ccccc32)CC1`, the Activity in the experiment with K562 [1] came to 33.67%; in the experiment on K562 [4], 6.1%; in the experiment on K562 [5], 60.23%. In addition, in the experiment on K562 [2], the IC50 amounted to 7.3 µM. The outcome in the experiment on K562 [26] was inactive. In the experiment with K562 [6], this compound gave a concentration at half-maximal activity (AC50) of 14 µM.
Take `O=C(Cc1cc2ccccc2[nH]1)N1CCC(n2c(=O)[nH]c3ccccc32)CC1`: in the experiment on K562 [2], the IC50 was greater than 50 µM. In addition, the AC50 in the experiment on K562 [6] is greater than 50 µM.
The compound `N#CCC(=O)N1CCC(n2c(=O)[nH]c3ccccc32)CC1` gave an IC50 in the experiment on K562 [2] greater than 50 µM. This compound had an AC50 in the experiment on K562 [6] greater than 50 µM.
Turning to `COc1ccc(CC(=O)N2CCC(n3c(=O)[nH]c4ccccc43)CC2)cc1`, the IC50 in the experiment with K562 [2] was greater than 50 µM. The AC50 with K562 [6] is greater than 50 µM.
In turn, `O=C(CCC(c1ccc(F)cc1)c1ccc(F)cc1)N1CCC(n2c(=O)[nH]c3ccccc32)CC1` showed a half-inhibitory concentration (IC50) in the experiment on K562 [2] greater than 50 µM. The same compound displayed an AC50 with K562 [6] greater than 50 µM.
Compound `O=C(CC=C(c1ccc(F)cc1)c1ccc(F)cc1)N1CCC(n2c(=O)[nH]c3ccccc32)CC1` came in with an IC50 with K562 [2] of 18 µM. The Activity with K562 [7] came to 46.64%; in the experiment on K562 [8] it was 6.16%; in the experiment with K562 [9] it was 47.2%. In the experiment on K562 [10], the result was inactive. In the experiment on K562 [6], this compound returned an AC50 of 35 µM.
`CN1CCC(n2c(=O)[nH]c3ccccc32)CC1` came in with an IC50 in the experiment with K562 [2] greater than 50 µM. This compound also yielded an AC50 with K562 [6] greater than 50 µM.
Compound `O=C(Cc1ccccc1)N1CCC(n2c(=O)[nH]c3ccccc32)CC1` came in with an IC50 in the experiment on K562 [2] greater than 50 µM. In the experiment on K562 [6], this compound returned an AC50 greater than 50 µM.
`O=C(CC=C(c1ccccc1)c1ccccc1)N1CCC(n2c(=O)[nH]c3ccccc32)CC1` returned an IC50 in the experiment with K562 [2] of 13 µM. Further, the values for the Activity in the experiment on K562 [27], with K562 [28] and in the experiment with K562 [29] were 58.57%, 34.1% and 7.33%, respectively. The outcome in the experiment with K562 [10] was inactive. Besides, the activity in the experiment with K562 [6] was half-maximal at 18 µM (AC50).
`CC(=O)N1CCC(n2c(=O)[nH]c3ccccc32)CC1` showed an IC50 with K562 [2] greater than 50 µM. The compound further had an AC50 in the experiment with K562 [6] greater than 50 µM.
